# Test results published in PubChem BioAssay AID1259407 (Chemical Carcinogenesis Research Information System (CCRIS), 2018).
# Calls of active or inactive are those of the source. How the calls were made is not given here.
# System: CCRIS mutagenicity, Ames/micronucleus/aberration tests
# Assay: CCRIS mutagenicity studies
# [1] = Test System: AMES SALMONELLA TYPHIMURIUM, Strain/Indicator: TA98, Metabolic Activation: NONE, Method: PREINCUBATION
# [2] = Test System: AMES SALMONELLA TYPHIMURIUM, Strain/Indicator: TA100, Metabolic Activation: NONE, Method: PREINCUBATION
# [3] = Test System: AMES SALMONELLA TYPHIMURIUM, Strain/Indicator: TA1535, Metabolic Activation: HAMSTER, LIVER, S-9, AROCLOR 1254 (10%), Method: PREINCUBATION
# [4] = Test System: AMES SALMONELLA TYPHIMURIUM, Strain/Indicator: TA1535, Metabolic Activation: NONE, Method: PREINCUBATION
# [5] = Test System: AMES SALMONELLA TYPHIMURIUM, Strain/Indicator: TA1535, Metabolic Activation: RAT, LIVER, S-9, AROCLOR 1254 (10%), Method: PREINCUBATION
smiles,measurement,setting,value
CC(=O)NNc1ccccc1,mutagenic call,"Test System: AMES SALMONELLA TYPHIMURIUM, Strain/Indicator: TA97, Metabolic Activation: HAMSTER, LIVER, S-9, AROCLOR 1254 (5%), Method: PREINCUBATION",inactive; negative
same,mutagenic call,"Test System: AMES SALMONELLA TYPHIMURIUM, Strain/Indicator: TA97, Metabolic Activation: HAMSTER, LIVER, S-9, AROCLOR 1254 (10%), Method: PREINCUBATION",inactive; negative
same,mutagenic call,"Test System: AMES SALMONELLA TYPHIMURIUM, Strain/Indicator: TA97, Metabolic Activation: HAMSTER, LIVER, S-9, AROCLOR 1254 (30%), Method: PREINCUBATION",active; positive
same,mutagenic call,"Test System: AMES SALMONELLA TYPHIMURIUM, Strain/Indicator: TA97, Metabolic Activation: NONE, Method: PREINCUBATION",active; positive
same,mutagenic call,"Test System: AMES SALMONELLA TYPHIMURIUM, Strain/Indicator: TA97, Metabolic Activation: RAT, LIVER, S-9, AROCLOR 1254 (5, 10 OR 30%), Method: PREINCUBATION",inactive; negative
same,mutagenic call,"Test System: AMES SALMONELLA TYPHIMURIUM, Strain/Indicator: TA98, Metabolic Activation: HAMSTER, LIVER, S-9, AROCLOR 1254 (5, 10 OR 30%), Method: PREINCUBATION",inactive; negative
same,mutagenic call,[1],inactive; negative
same,mutagenic call,"Test System: AMES SALMONELLA TYPHIMURIUM, Strain/Indicator: TA98, Metabolic Activation: RAT, LIVER, S-9, AROCLOR 1254 (5, 10 OR 30%), Method: PREINCUBATION",inactive; negative
same,mutagenic call,"Test System: AMES SALMONELLA TYPHIMURIUM, Strain/Indicator: TA100, Metabolic Activation: HAMSTER, LIVER, S-9, AROCLOR 1254 (5%), Method: PREINCUBATION",inactive; negative
same,mutagenic call,"Test System: AMES SALMONELLA TYPHIMURIUM, Strain/Indicator: TA100, Metabolic Activation: HAMSTER, LIVER, S-9, AROCLOR 1254 (10%), Method: PREINCUBATION",inactive; negative
same,mutagenic call,"Test System: AMES SALMONELLA TYPHIMURIUM, Strain/Indicator: TA100, Metabolic Activation: HAMSTER, LIVER, S-9, AROCLOR 1254 (30%), Method: PREINCUBATION",inactive; negative
same,mutagenic call,[2],inactive; negative
same,mutagenic call,"Test System: AMES SALMONELLA TYPHIMURIUM, Strain/Indicator: TA100, Metabolic Activation: RAT, LIVER, S-9, AROCLOR 1254 (5%), Method: PREINCUBATION",inactive; negative
same,mutagenic call,"Test System: AMES SALMONELLA TYPHIMURIUM, Strain/Indicator: TA100, Metabolic Activation: RAT, LIVER, S-9, AROCLOR 1254 (10%), Method: PREINCUBATION",inactive; negative
same,mutagenic call,"Test System: AMES SALMONELLA TYPHIMURIUM, Strain/Indicator: TA100, Metabolic Activation: RAT, LIVER, S-9, AROCLOR 1254 (30%), Method: PREINCUBATION",inactive; negative
same,mutagenic call,[3],inactive; negative
same,mutagenic call,"Test System: AMES SALMONELLA TYPHIMURIUM, Strain/Indicator: TA1535, Metabolic Activation: HAMSTER, LIVER, S-9, AROCLOR 1254 (30%), Method: PREINCUBATION",inactive; negative
same,mutagenic call,[4],active; positive
same,mutagenic call,"Test System: AMES SALMONELLA TYPHIMURIUM, Strain/Indicator: TA1535, Metabolic Activation: RAT, LIVER, S-9, AROCLOR 1254 (5%), Method: PREINCUBATION",inactive; negative
same,mutagenic call,[5],inactive; negative
same,mutagenic call,"Test System: AMES SALMONELLA TYPHIMURIUM, Strain/Indicator: TA1535, Metabolic Activation: RAT, LIVER, S-9, AROCLOR 1254 (30%), Method: PREINCUBATION",inactive; negative
COc1cccc2c1cc1c3c(cc4c(c32)OCO4)C(=O)N1[C@H]1O[C@H](CO)[C@@H](O)[C@H](O)[C@H]1O,mutagenic call,"Test System: AMES SALMONELLA TYPHIMURIUM, Strain/Indicator: TM677/8-AZAGUANINE, Metabolic Activation: NONE, Method: SUSPENSION/PLATE",inactive; negative
Brc1ccc(-c2ccc(Br)c(Br)c2)cc1Br,mutagenic call,"Test System: CHINESE HAMSTER V-79, Strain/Indicator: V-79 (HGPRT)/6-THIOGUANINE, Metabolic Activation: NONE",inactive; negative
same,mutagenic call,"Test System: CHINESE HAMSTER V-79, Strain/Indicator: V-79 (HGPRT)/6-THIOGUANINE, Metabolic Activation: RAT, LIVER, S-9, AROCLOR 1254",inactive; negative
CSC[C@H](N)C(=O)O,mutagenic call,[1],inactive; negative
same,mutagenic call,"Test System: AMES SALMONELLA TYPHIMURIUM, Strain/Indicator: TA98, Metabolic Activation: RAT, LIVER OR KIDNEY, MICROSOMES, Method: PREINCUBATION",inactive; negative
same,mutagenic call,[2],inactive; negative
same,mutagenic call,"Test System: AMES SALMONELLA TYPHIMURIUM, Strain/Indicator: TA100, Metabolic Activation: RAT, LIVER OR KIDNEY, MICROSOMES, Method: PREINCUBATION",inactive; negative
same,mutagenic call,"Test System: AMES SALMONELLA TYPHIMURIUM, Strain/Indicator: TA102, Metabolic Activation: NONE, Method: PREINCUBATION",inactive; negative
same,mutagenic call,"Test System: AMES SALMONELLA TYPHIMURIUM, Strain/Indicator: TA102, Metabolic Activation: RAT, LIVER OR KIDNEY, MICROSOMES, Method: PREINCUBATION",inactive; negative
same,mutagenic call,"Test System: AMES SALMONELLA TYPHIMURIUM, Strain/Indicator: TA2638, Metabolic Activation: NONE, Method: PREINCUBATION",inactive; negative
same,mutagenic call,"Test System: AMES SALMONELLA TYPHIMURIUM, Strain/Indicator: TA2638, Metabolic Activation: RAT, LIVER OR KIDNEY, MICROSOMES, Method: PREINCUBATION",inactive; negative
C[Si](C)(C)N=[N+]=[N-],mutagenic call,[2],active; positive
same,mutagenic call,"Test System: AMES SALMONELLA TYPHIMURIUM, Strain/Indicator: TA100, Metabolic Activation: RAT, LIVER, S-9, PCB, Method: PREINCUBATION",active; positive
Nc1c(Br)cc(Br)c2c1C(=O)c1ccccc1C2=O,mutagenic call,"End Point: IN VITRO CHROMOSOMAL ABERRATIONS, Test System: CHO-LB CELLS, Metabolic Activation: NONE",inactive; negative
same,mutagenic call,"End Point: IN VITRO CHROMOSOMAL ABERRATIONS, Test System: CHO-LB CELLS, Metabolic Activation: RAT, LIVER, S-9, AROCLOR 1254",inactive; negative
same,mutagenic call,"Test System: AMES SALMONELLA TYPHIMURIUM, Strain/Indicator: TA98, Metabolic Activation: HAMSTER, LIVER, S-9, AROCLOR 1254 (10%), Method: PREINCUBATION",inactive; negative
same,mutagenic call,"Test System: AMES SALMONELLA TYPHIMURIUM, Strain/Indicator: TA98, Metabolic Activation: HAMSTER, LIVER, S-9, AROCLOR 1254, Method: PREINCUBATION",inactive; negative
same,mutagenic call,[1],active; positive
same,mutagenic call,"Test System: AMES SALMONELLA TYPHIMURIUM, Strain/Indicator: TA98, Metabolic Activation: RAT, LIVER, S-9, AROCLOR 1254 (10%), Method: PREINCUBATION",inactive; negative
same,mutagenic call,"Test System: AMES SALMONELLA TYPHIMURIUM, Strain/Indicator: TA98, Metabolic Activation: RAT, LIVER, S-9, AROCLOR 1254, Method: PREINCUBATION",inactive; negative
same,mutagenic call,"Test System: AMES SALMONELLA TYPHIMURIUM, Strain/Indicator: TA100, Metabolic Activation: HAMSTER, LIVER, S-9, AROCLOR 1254, Method: PREINCUBATION",inactive; negative
same,mutagenic call,[2],inactive; negative
same,mutagenic call,"Test System: AMES SALMONELLA TYPHIMURIUM, Strain/Indicator: TA100, Metabolic Activation: RAT, LIVER, S-9, AROCLOR 1254, Method: PREINCUBATION",inactive; negative
same,mutagenic call,[3],inactive; negative
same,mutagenic call,"Test System: AMES SALMONELLA TYPHIMURIUM, Strain/Indicator: TA1535, Metabolic Activation: HAMSTER, LIVER, S-9, AROCLOR 1254, Method: PREINCUBATION",inactive; negative
same,mutagenic call,[4],inactive; negative
same,mutagenic call,[5],inactive; negative
same,mutagenic call,"Test System: AMES SALMONELLA TYPHIMURIUM, Strain/Indicator: TA1535, Metabolic Activation: RAT, LIVER, S-9, AROCLOR 1254, Method: PREINCUBATION",inactive; negative
same,mutagenic call,"Test System: AMES SALMONELLA TYPHIMURIUM, Strain/Indicator: TA1537, Metabolic Activation: HAMSTER, LIVER, S-9, AROCLOR 1254, Method: PREINCUBATION",inactive; negative
same,mutagenic call,"Test System: AMES SALMONELLA TYPHIMURIUM, Strain/Indicator: TA1537, Metabolic Activation: NONE, Method: PREINCUBATION",active; positive
same,mutagenic call,"Test System: AMES SALMONELLA TYPHIMURIUM, Strain/Indicator: TA1537, Metabolic Activation: RAT, LIVER, S-9, AROCLOR 1254, Method: PREINCUBATION",active; positive
